Source: PMC10915168, “DJ-1 protects proteins from acylation by catalyzing the hydrolysis of highly reactive cyclic 3-phosphoglyceric anhydride” (Nature Communications, 2024)

Molecular target: T1, DJ-1 (Homo sapiens, UniProt Q99497, C106S)
T1 construct: gene PARK7; full-length, N-terminal His-tag removed by TEV protease; Ni-NTA purified recombinant; ~20 kDa
T1 sequence (Q99497 1-189 C106S): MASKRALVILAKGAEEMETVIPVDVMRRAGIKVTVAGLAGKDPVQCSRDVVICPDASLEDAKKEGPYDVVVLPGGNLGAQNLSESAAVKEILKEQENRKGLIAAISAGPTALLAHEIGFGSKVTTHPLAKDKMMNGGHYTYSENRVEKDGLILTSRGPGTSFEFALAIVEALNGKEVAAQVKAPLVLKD
Test: end-point NAC assay of remaining cPGA; 1H-NMR
Format: biochemical
Conditions: 500 µM cPGA, 2 min, 50 mM sodium phosphate pH 7.0, 25 °C; catalytic cysteine mutant

Question: How did the “end-point NAC assay of remaining cPGA; 1H-NMR” value turn out when `O=C1OP(=O)(O)OC[C@H]1O` [cPGA] was run?
Answer: Mutation of the catalytic cysteine (C106S) in DJ-1 completely abolished this activity
